Assay [1] concerns KYSE-70 cell line. In words: Induction of apoptosis in human KYSE-70 cells assessed as late apoptotic cells at 10 nmol/L incubated for 48 hrs by Annexin V-FITC/PI staining based flow cytometry analysis (reference value: 3.01%). It is filed as functional.
The target of assay [2] is T1, Tubulin (Homo sapiens) (UniProt P68371+Q9H4B7+P0DPH7+P68366+Q13509+Q71U36+P04350+Q3ZCM7+P07437+P68363+Q9BQE3+Q6PEY2+Q13885+Q9BVA1+Q9BUF5). In words: Inhibition of tubulin polymerization in human KYSE-70 cells assessed as multinucleation of cells at 5 to 20 nmol/L incubated for 24 hrs by DAPI staining based fluorescence microscopic analysis. It is filed as cell-based. Particulars: dose 5-20 nmol/L.

Assay [3] has as its system KYSE-70 cell line. The experiment in a line: Induction of apoptosis in human KYSE-70 cells assessed as late apoptotic cells at 5 nmol/L incubated for 48 hrs by Annexin V-FITC/PI staining based flow cytometry analysis (reference value: 3.01%). The format is functional.
Assay [4] has as its target T1, Tubulin (Homo sapiens). The experiment in a line: Inhibition of tubulin polymerization in human KYSE-70 cells assessed as reduction in filamentous microtubule structure formation at 5 to 20 nmol/L incubated for 24 hrs by DAPI staining based fluorescence microscopic analysis. It is filed as cell-based. As to conditions: dose 5-20 nmol/L.
For assay [5], the system named is Esophageal squamous cell carcinoma cell. The experiment in a line: Induction of apoptosis in human Esophageal squamous cell carcinoma cell assessed as increase in cleaved-PARP level at 5 to 20 nmol/L incubated for 48 hrs by Western blot analysis. The format is functional, cell-based. Particulars: dose 5-20 nmol/L.
In the next assay the test system is KYSE-30. In words: Induction of cell cycle arrest in human KYSE-30 cells assessed as accumulation of cells at G2/M phase at 10 nmol/L by PI staining based flow cytometric analysis. It is filed as functional.

SMILES strings stand for the structures. Activity calls are given as the source filed them. The rule behind the calls is not given here.

Consider `COc1ccc(-c2cnoc2-c2cc(C)nc3ccccc23)cc1`, for which the results for the Activity in the assay on KYSE-70 cell line [1] and in the assay with KYSE-70 cell line [3] were 14.3% and 6.21%, respectively. Besides, the inhibition result on Tubulin (Homo sapiens) [2] and on Tubulin (Homo sapiens) [4] was “Active” each time. The result (in assay [5]; with KYSE-30) was Active.
